One may read the inhibition as the change of the read-out against control, counted positive when it falls.

The test system of one experiment is TNF-α. The experiment in a line: Cell-based TNF-α inhibition assay (LPS-induced PBMCs, Meso Scale). Conditions: PBMC, PBMCs pretreated 1 h, LPS 100 ng/mL 18-24 h, percentage of stimulated DMSO control; for inhibition at 0.1 µM: compound concentration 0.1 μM; for inhibition at 1 µM: compound concentration 1 μM. Summed up: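 Thawed primary PBMCs (200,000 cells/well, RPMI 1640 with 10% FBS) were pretreated with compound for 1 h, then stimulated with 100 ng/mL LPS for 18–24 h. Supernatant TNF-α was measured by Meso Scale, and activity was expressed as percent inhibition relative to the stimulated DMSO control.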

A further experiment has as its target T1, PDE4B (Homo sapiens, UniProt Q07343).
T1 construct: endogenous in cells; host or cells: A549
Description: Protein degradation assay, western blot, PDE4B in A549 cells. As to conditions: 24 h treatment, 'as high as about' = upper value for the group, read-out: PDE4B degradation relative to DMSO. Format: cell-based. How it is done: Example B2. Protein Degradation Assay
A549 cells were grown in RPMI 1640 media supplemented with 10% fetal bovine serum, streptomycin, and penicillin. The cells were plated in 6-well plates at 300,000 cells/well in the growth media. After overnight incubation, the cells were treated with DMSO (control) or a compound at predetermined concentrations (e.g., 10 nM, 100 nM, 1 μM, 3 μM, or 10 μM) for 24 h at 37° C. under 5% CO2. Whole cell extracts were prepared using an immunoprecipitation (IP) lysis buffer. The cells were washed once in PBS, and the cell pellets were resuspended in the IP lysis buffer and incubated for 15 min on ice. Cells debris was removed by centrifugation and the cleared whole cell lysates were transferred to new tubes for further analysis.
For a western blot analysis, the whole cell protein extracts were separated on 4-12% SDS-polyacrylamide gels, transferred to nitrocellulose, and probed with primary antibodies. Membranes were subsequently washed and probed with IRDYE® secondary antibodies. The signals were detected using an ODYSSEY® Imaging System. The antibodies used in the assay included anti-PDE4B antibody; anti-PDE4D antibodies (top, bottom, and short isoform); β-actin mouse monoclonal antibody; IRDYE® 680RD goat anti-rabbit antibody; and IRDYE® 800CW goat anti-mouse antibody. The compounds provided herein are PDE4 protein degraders.
A general note: A western blot detects proteins with antibodies after separation by electrophoresis.

T1 sequence (Q07343 whole entry): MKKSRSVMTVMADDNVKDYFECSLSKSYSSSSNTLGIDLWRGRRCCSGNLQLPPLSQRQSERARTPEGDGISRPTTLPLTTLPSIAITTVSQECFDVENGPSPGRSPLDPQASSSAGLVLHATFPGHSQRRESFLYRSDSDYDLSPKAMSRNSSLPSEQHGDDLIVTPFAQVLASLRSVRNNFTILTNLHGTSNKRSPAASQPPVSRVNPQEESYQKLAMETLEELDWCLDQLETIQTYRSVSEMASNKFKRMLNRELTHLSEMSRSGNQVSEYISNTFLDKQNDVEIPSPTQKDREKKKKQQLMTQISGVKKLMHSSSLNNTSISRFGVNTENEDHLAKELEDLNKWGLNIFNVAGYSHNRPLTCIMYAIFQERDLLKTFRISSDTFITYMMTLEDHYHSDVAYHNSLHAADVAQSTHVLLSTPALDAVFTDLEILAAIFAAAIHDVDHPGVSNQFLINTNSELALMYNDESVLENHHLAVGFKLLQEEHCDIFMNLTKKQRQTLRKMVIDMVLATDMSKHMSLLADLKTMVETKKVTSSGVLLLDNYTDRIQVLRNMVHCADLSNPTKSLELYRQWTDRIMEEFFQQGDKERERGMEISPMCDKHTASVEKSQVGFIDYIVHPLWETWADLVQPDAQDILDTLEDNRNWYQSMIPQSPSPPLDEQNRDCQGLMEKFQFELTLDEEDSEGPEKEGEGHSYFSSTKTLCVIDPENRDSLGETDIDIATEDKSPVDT

As for `CCOc1cc([C@@H](CS(C)(=O)=O)N2C(=O)c3cccc(NC(=O)CCOCCOCCOCCNc4cccc5c4C(=O)N(C4CCC(=O)NC4=O)C5=O)c3C2=O)ccc1OC` (stereo partly drawn) [Compound A10, 3-(2-(2-(2-((2-(2,6-Dioxopiperidin-3-yl)-1,3-dioxoisoindolin-4-yl)amino)ethoxy)-ethoxy)ethoxy)-N-(2-((S)-1-(3-ethoxy-4-methoxyphenyl)-2-(methylsulfonyl)ethyl)-1,3-dioxoisoindolin-4-yl)propanamide], in the experiment with TNF-α, the inhibition at 0.1 µM is < 20% and the inhibition at 1 µM is < 20%. Besides, the Dmax on PDE4B is ≤ 70%.

Take `CCOc1cc([C@@H](CS(C)(=O)=O)N2C(=O)c3cccc(NC(=O)CCCCCCCCN4CCC(c5cc(F)cc6c5CN(C5CCC(=O)NC5=O)C6=O)CC4)c3C2=O)ccc1OC` (stereo partly drawn) [Compound A13, 9-(4-(2-(2,6-Dioxopiperidin-3-yl)-6-fluoro-1-oxoisoindolin-4-yl)piperidin-1-yl)-N-(2-((S)-1-(3-ethoxy-4-methoxyphenyl)-2-(methylsulfonyl)ethyl)-1,3-dioxoisoindolin-4-yl)nonanamide]: the inhibition at 0.1 µM with TNF-α is ≥ 60%. Moreover, on PDE4B, the Dmax is ≤ 70%.

`CCOc1cc([C@@H](CS(C)(=O)=O)N2C(=O)c3cccc(NC(=O)CCOCCOCCNc4cccc5c4C(=O)N(C4CCC(=O)NC4=O)C5=O)c3C2=O)ccc1OC` (stereo partly drawn) [Compound A9, 3-(2-(2-((2-(2,6-Dioxopiperidin-3-yl)-1,3-dioxoisoindolin-4-yl)amino)-ethoxy)ethoxy)-N-(2-((S)-1-(3-ethoxy-4-methoxyphenyl)-2-(methylsulfonyl)ethyl)-1,3-dioxoisoindolin-4-yl)propanamide]: in the experiment with TNF-α, the inhibition at 0.1 µM was ≥ 60% and the inhibition at 1 µM was ≥ 60%. At PDE4B, the Dmax is ≤ 70%.

Take `CCOc1cc([C@@H](CS(C)(=O)=O)N2C(=O)c3cccc(NC(=O)CCCCCCCN4CCC(c5cc6c(cc5F)C(=O)N(C5CCC(=O)NC5=O)C6)CC4)c3C2=O)ccc1OC` (stereo partly drawn) [Compound A22, 8-{4-[2-(2,6-Dioxopiperidin-3-yl)-6-fluoro-1-oxo-2,3-dihydro-1H-isoindol-5-yl]piperidin-1-yl}-N-{2-[(1S)-1-(3-ethoxy-4-methoxyphenyl)-2-methanesulfonylethyl]-1,3-dioxo-2,3-dihydro-1H-isoindol-4-yl}octanamide]: in the experiment with TNF-α, the inhibition at 0.1 µM is ≥ 60% and the inhibition at 1 µM is ≥ 60%. Moreover, the Dmax at PDE4B was ≤ 70%.

For `CCOc1cc([C@@H](CS(C)(=O)=O)N2C(=O)c3cccc(NC(=O)CCCc4ccc(CCNCc5ccc(OCc6scc7c6CN(C6CCC(=O)NC6=O)C7=O)cc5)cc4)c3C2=O)ccc1OC` (stereo partly drawn) [Compound A42, 4-[4-(2-{[(4-{[5-(2,6-Dioxopiperidin-3-yl)-4-oxo-4H,5H,6H-thieno[3,4-c]pyrrol-1-yl]methoxy}phenyl)methyl]amino}ethyl)phenyl]-N-{2-[(1S)-1-(3-ethoxy-4-methoxyphenyl)-2-methanesulfonylethyl]-1,3-dioxo-2,3-dihydro-1H-isoindol-4-yl}butanamide], in the experiment on TNF-α, the inhibition at 0.1 µM was ≥ 60% and the inhibition at 1 µM is ≥ 60%. Besides, the Dmax on PDE4B was ≤ 70%.

For `CCOc1cc([C@@H](CS(C)(=O)=O)N2C(=O)c3cccc(NC(=O)CCCCCCCCC4CCN(c5cccc6c5C(=O)N(C5CCC(=O)NC5=O)C6=O)CC4)c3C2=O)ccc1OC` (stereo partly drawn) [Compound A15, 9-{1-[2-(2,6-Dioxopiperidin-3-yl)-1,3-dioxo-2,3-dihydro-1H-isoindol-4-yl]piperidin-4-yl}-N-{2-[(1S)-1-(3-ethoxy-4-methoxyphenyl)-2-methanesulfonylethyl]-1,3-dioxo-2,3-dihydro-1H-isoindol-4-yl}nonanamide], in the experiment on TNF-α, the inhibition at 0.1 µM lay within 40 to 60% and the inhibition at 1 µM is ≥ 60%. Moreover, on PDE4B, the Dmax is ≤ 70%.

Turning to `CCOc1cc([C@@H](CS(C)(=O)=O)N2C(=O)c3cccc(NC(=O)CCCCCCCCCCNCc4ccc(OCc5scc6c5CN(C5CCC(=O)NC5=O)C6=O)cc4)c3C2=O)ccc1OC` (stereo partly drawn) [Compound A43, 11-{[(4-{[5-(2,6-Dioxopiperidin-3-yl)-4-oxo-4H,5H,6H-thieno[3,4-c]pyrrol-1-yl]methoxy}phenyl)methyl]amino}-N-{2-[(1S)-1-(3-ethoxy-4-methoxyphenyl)-2-methanesulfonylethyl]-1,3-dioxo-2,3-dihydro-1H-isoindol-4-yl}undecanamide], in the experiment on TNF-α, the inhibition at 0.1 µM was ≥ 60% and the inhibition at 1 µM was ≥ 60%. On PDE4B, the Dmax is ≤ 70%.

As for `O=C1CCC(N2Cc3cc(C4CCN(CCOc5cc(C(=O)Nc6c(Cl)cncc6Cl)ccc5OC(F)F)CC4)c(F)cc3C2=O)C(=O)N1` (stereo not drawn) [Compound B15, N-(3,5-Dichloropyridin-4-yl)-4-(difluoromethoxy)-3-(2-{4-[2-(2,6-dioxo-piperidin-3-yl)-6-fluoro-1-oxo-2,3-dihydro-1H-isoindol-5-yl]piperidin-1-yl}ethoxy)benzamide], in the experiment with TNF-α, the inhibition at 0.1 µM was ≥ 60% and the inhibition at 1 µM was ≥ 60%. The Dmax on PDE4B was ≤ 70%.

Consider `CCOc1cc([C@@H](CS(C)(=O)=O)N2C(=O)c3cccc(NC(=O)CCOCCOCCNCc4ccc(OCc5scc6c5CN(C5CCC(=O)NC5=O)C6=O)cc4)c3C2=O)ccc1OC` (stereo partly drawn) [Compound A41, 3-[2-(2-{[(4-{[5-(2,6-Dioxopiperidin-3-yl)-4-oxo-4H,5H,6H-thieno[3,4-c]pyrrol-1-yl]methoxy}phenyl)methyl]amino}ethoxy)ethoxy]-N-{2-[(1S)-1-(3-ethoxy-4-methoxyphenyl)-2-methanesulfonylethyl]-1,3-dioxo-2,3-dihydro-1H-isoindol-4-yl}propanamide], for which, in the experiment with TNF-α, the inhibition at 0.1 µM fell in the range of 40 to 60% and the inhibition at 1 µM was ≥ 60%. Moreover, the Dmax at PDE4B is ≤ 70%.

Regarding `Cc1ncsc1-c1ccc(CNC(=O)[C@@H]2C[C@@H](O)CN2C(=O)[C@@H](NC(=O)CCCCCCCCOc2cc(C(=O)Nc3c(Cl)cncc3Cl)ccc2OC(F)F)C(C)(C)C)cc1` [Compound B20, (2S,4R)-1-((S)-2-(9-(5-((3,5-Dichloropyridin-4-yl)carbamoyl)-2-(difluoromethoxy)phenoxy)nonanamido)-3,3-dimethylbutanoyl)-4-hydroxy-N-(4-(4-methylthiazol-5-yl)benzyl)pyrrolidine-2-carboxamide], the Dmax on PDE4B was ≤ 70%.

On to `O=C1CCC(N2Cc3c(cc(F)cc3C3CCN(CCCCCCCOc4ccc(C(=O)Nc5c(Cl)cncc5Cl)cc4OCC4CC4)CC3)C2=O)C(=O)N1` (stereo not drawn) [Compound B10, 3-(Cyclopropylmethoxy)-N-(3,5-dichloropyridin-4-yl)-4-((7-(4-(2-(2,6-dioxopiperidin-3-yl)-6-fluoro-1-oxoisoindolin-4-yl)piperidin-1-yl)heptyl)oxy)benzamide], for which, in the experiment with TNF-α, the inhibition at 0.1 µM fell in the range of 20 to 40% and the inhibition at 1 µM is ≥ 60%. Moreover, the Dmax at PDE4B is ≤ 70%.

Consider `CCOc1cc([C@@H](CS(C)(=O)=O)N2C(=O)c3cccc(NCCCCCCCCCNCc4ccc(OCc5scc6c5CN(C5CCC(=O)NC5=O)C6=O)cc4)c3C2=O)ccc1OC` (stereo partly drawn) [Compound A44, 4-[(9-{[(4-{[5-(2,6-Dioxopiperidin-3-yl)-4-oxo-4H,5H,6H-thieno[3,4-c]pyrrol-1-yl]methoxy}phenyl)methyl]amino}nonyl)amino]-2-[(1S)-1-(3-ethoxy-4-methoxyphenyl)-2-methanesulfonylethyl]-2,3-dihydro-1H-isoindole-1,3-dione], for which, in the experiment with TNF-α, the inhibition at 0.1 µM was ≥ 60% and the inhibition at 1 µM is ≥ 60%. Further, on PDE4B, the Dmax was ≤ 70%.

Take `O=C1CCC(N2C(=O)c3cccc(NCCCCCCCOc4cc(C(=O)Nc5c(Cl)cncc5Cl)ccc4OC(F)F)c3C2=O)C(=O)N1` (stereo not drawn) [Compound B6, N-(3,5-Dichloropyridin-4-yl)-4-(difluoromethoxy)-3-((7-((2-(2,6-dioxopiperidin-3-yl)-1,3-dioxoisoindolin-4-yl)amino)heptyl)oxy)benzamide]: the Dmax at PDE4B is ≤ 70%.

On to `CCOc1cc([C@@H](CS(C)(=O)=O)N2C(=O)c3cccc(NC(=O)CCCCCCCCC(=O)N[C@H](C(=O)N4C[C@H](O)C[C@H]4C(=O)NCc4ccc(-c5scnc5C)cc4)C(C)(C)C)c3C2=O)ccc1OC` [Compound A60, N^1-(2-((S)-1-(3-Ethoxy-4-methoxyphenyl)-2-(methylsulfonyl)ethyl)-1,3-dioxoisoindolin-4-yl)-N^10—((S)-1-((2S,4R)-4-hydroxy-2-((4-(4-methylthiazol-5-yl)benzyl)-carbamoyl)pyrrolidin-1-yl)-3,3-dimethyl-1-oxobutan-2-yl)decanediamide], for which the Dmax at PDE4B is ≤ 70%.

`CCOc1cc([C@@H](CS(C)(=O)=O)N2C(=O)c3cc(CCCCCCCCCCCCN4CCC(c5cc(F)cc6c5CN(C5CCC(=O)NC5=O)C6=O)CC4)cc(NC(C)=O)c3C2=O)ccc1OC` (stereo partly drawn) [Compound A14, N-(6-(12-(4-(2-(2,6-Dioxopiperidin-3-yl)-6-fluoro-1-oxoisoindolin-4-yl)piperidin-1-yl)dodecyl)-2-((S)-1-(3-ethoxy-4-methoxyphenyl)-2-(methylsulfonyl)ethyl)-1,3-dioxoisoindolin-4-yl)acetamide]: the Dmax at PDE4B was ≤ 70%.

For the origin of these results see patent US20240124418A1 (BioTheryX, Inc., priority 2020, published 2024).
